Measured values published in PubChem BioAssay AID248 (DTP/NCI, 2004).
“And” between values parts separate entries of the source, which are not always exact repeats. Identical values can stand only once. Inconclusive results and toxic doses are left out.

Tested on: L1210 leukemia ip in BDF1 mice, survival T/C
Assay: NCI In Vivo Anticancer Drug Screen. Data for tumor model L1210 Leukemia (intraperitoneal) in B6D2F1 (BDF1) mice
Details: endpoint: mean survival time, higher = longer survival
Procedure, shortened: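 Transplantable tumor model; survival measured in treated vs vehicle control mice. Value = treated/control.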

[1] = dose: 100.0 mg/kg/injection, schedule: Q01DX001 (ip), vehicle: saline
[2] = dose: 200.0 mg/kg/injection, schedule: Q01DX001 (ip), vehicle: saline
[3] = dose: 400.0 mg/kg/injection, schedule: Q01DX001 (ip), vehicle: saline
[4] = dose: 100.0 mg/kg/injection, schedule: Q01DX009 (ip), vehicle: saline with Tween-80
[5] = dose: 100.0 mg/kg/injection, schedule: Q04DX003 (ip), vehicle: saline with Tween-80
[6] = dose: 200.0 mg/kg/injection, schedule: Q01DX009 (ip), vehicle: saline with Tween-80
[7] = dose: 200.0 mg/kg/injection, schedule: Q04DX003 (ip), vehicle: saline with Tween-80
[8] = dose: 400.0 mg/kg/injection, schedule: Q01DX009 (ip), vehicle: saline with Tween-80
[9] = dose: 400.0 mg/kg/injection, schedule: Q04DX003 (ip), vehicle: saline with Tween-80
[10] = dose: 50.0 mg/kg/injection, schedule: Q01DX001 (ip), vehicle: saline
[11] = dose: 100.0 mg/kg/injection, schedule: Q04DX003 (ip), vehicle: Klucel (hydroxypropylcellulose) (HPC)
[12] = dose: 200.0 mg/kg/injection, schedule: Q04DX003 (ip), vehicle: Klucel (hydroxypropylcellulose) (HPC)
[13] = dose: 400.0 mg/kg/injection, schedule: Q04DX003 (ip), vehicle: Klucel (hydroxypropylcellulose) (HPC)
[14] = dose: 100.0 mg/kg/injection, schedule: Q04DX003 (ip), vehicle: saline
[15] = dose: 200.0 mg/kg/injection, schedule: Q04DX003 (ip), vehicle: saline
[16] = dose: 400.0 mg/kg/injection, schedule: Q04DX003 (ip), vehicle: saline

O=C(CC(=O)c1ccccc1)c1ccccc1.O=C(CC(=O)c1ccccc1)c1ccccc1.O=C(CC(=O)c1ccccc1)c1ccccc1.[Al]
T/C (dose: 100.0 mg/kg/injection, schedule: Q04DX002 (ip), vehicle: gum acacia): 100 % of control | T/C (dose: 200.0 mg/kg/injection, schedule: Q04DX002 (ip), vehicle: gum acacia): 97 % of control | T/C (dose: 400.0 mg/kg/injection, schedule: Q04DX002 (ip), vehicle: gum acacia): 90 % of control

COc1ccc(/C=C2/CN(c3ccc(C(=O)O)cc3)C(=O)C2=O)cc1
T/C [1]: 95 % of control | T/C [2]: 98 % of control | T/C [3]: 98 % of control

CC(=O)c1ccc(NCc2cnc3nc(N)nc(N)c3n2)cc1
T/C (dose: 20.0 mg/kg/injection, schedule: Q01DX009 (ip), vehicle: Klucel (hydroxypropylcellulose) (HPC)): 102 % of control | T/C (dose: 40.0 mg/kg/injection, schedule: Q01DX009 (ip), vehicle: Klucel (hydroxypropylcellulose) (HPC)): 105 % of control | T/C (dose: 80.0 mg/kg/injection, schedule: Q01DX009 (ip), vehicle: Klucel (hydroxypropylcellulose) (HPC)): 105 % of control

Cc1cc(C)c(NC(=S)NC(=O)C(C)Oc2ccccc2)c(C)c1 (stereo not drawn)
T/C (dose: 100.0 mg/kg/injection, schedule: Q01DX001 (ip), vehicle: saline with Tween-80): 97 % of control | T/C [4]: 96 % of control and 100 % of control | T/C (dose: 100.0 mg/kg/injection, schedule: Q04DX002 (ip), vehicle: saline with Tween-80): 101 % of control and 104 % of control | T/C [5]: 93 % of control | T/C (dose: 200.0 mg/kg/injection, schedule: Q01DX001 (ip), vehicle: saline with Tween-80): 97 % of control | T/C [6]: 97 % of control and 92 % of control | T/C (dose: 200.0 mg/kg/injection, schedule: Q04DX002 (ip), vehicle: saline with Tween-80): 97 % of control and 110 % of control | T/C [7]: 93 % of control | T/C (dose: 400.0 mg/kg/injection, schedule: Q01DX001 (ip), vehicle: saline with Tween-80): 103 % of control | T/C [8]: 102 % of control | T/C (dose: 400.0 mg/kg/injection, schedule: Q04DX002 (ip), vehicle: saline with Tween-80): 93 % of control and 121 % of control | T/C [9]: 93 % of control

O=[N+]([O-])c1ncc[nH]1
T/C [10]: 96 % of control | T/C [1]: 98 % of control | T/C [2]: 102 % of control

CN(Cc1ccccc1)c1ccc2nc(N)nc(N)c2c1
T/C (dose: 25.0 mg/kg/injection, schedule: Q04DX003 (ip), vehicle: saline with Tween-80): 105 % of control | T/C (dose: 50.0 mg/kg/injection, schedule: Q04DX003 (ip), vehicle: saline with Tween-80): 98 % of control | T/C [5]: 108 % of control

COc1cc2c(cc1OC)/C(=N/N)CCC2
T/C (dose: 50.0 mg/kg/injection, schedule: Q04DX003 (ip), vehicle: Klucel (hydroxypropylcellulose) (HPC)): 95 % of control

Cc1c(N2CCCCC2)[nH]c2ccccc12
T/C (dose: 100.0 mg/kg/injection, schedule: Q01DX009 (ip), vehicle: Klucel (hydroxypropylcellulose) (HPC)): 87 % of control | T/C [11]: 96 % of control | T/C [12]: 95 % of control | T/C [13]: 88 % of control

Nc1cc2c3ccccc3ccc2c2ccccc12
T/C (dose: 67.0 mg/kg/injection, schedule: Q01DX009 (ip), vehicle: saline with Tween-80): 105 % of control | T/C [4]: 105 % of control | T/C (dose: 150.0 mg/kg/injection, schedule: Q01DX009 (ip), vehicle: saline with Tween-80): 96 % of control | T/C (dose: 225.0 mg/kg/injection, schedule: Q01DX009 (ip), vehicle: saline with Tween-80): 97 % of control

CC(C)OP(=O)(NO)OC(C)C
T/C [1]: 97 % of control | T/C [2]: 92 % of control | T/C [3]: 90 % of control

CC1Cc2c(ccc3ccccc23)C1=O (stereo not drawn)
T/C [1]: 98 % of control | T/C [14]: 94 % of control | T/C [2]: 97 % of control | T/C [15]: 94 % of control | T/C [3]: 101 % of control | T/C [16]: 95 % of control

C=CCCCCCCCCC(=O)Cl
T/C [4]: 89 % of control | T/C [5]: 97 % of control | T/C [6]: 88 % of control | T/C [7]: 101 % of control | T/C [8]: 98 % of control | T/C [9]: 95 % of control

Cc1[nH]c(=S)[nH]c(=O)c1CCS
T/C [1]: 98 % of control | T/C [2]: 93 % of control | T/C [3]: 95 % of control

CC(C)(Oc1ccc(Cl)cc1)C(=O)O
T/C [1]: 101 % of control | T/C [2]: 101 % of control | T/C [3]: 98 % of control

NC(=O)c1cccc[n+]1Cc1cc(=O)[nH]c(=O)[nH]1
T/C [14]: 93 % of control | T/C [15]: 101 % of control | T/C [16]: 89 % of control

CN(CCO)CC1COc2ccccc2O1 (stereo not drawn)
T/C [10]: 97 % of control | T/C [1]: 105 % of control | T/C [2]: 88 % of control

COC1(OC)C2(Cl)CC(c3ccc(Cl)cc3)C1(Cl)C(Cl)=C2Cl (stereo not drawn)
T/C [4]: 110 % of control | T/C [11]: 98 % of control | T/C [6]: 101 % of control | T/C [12]: 105 % of control | T/C [8]: 100 % of control | T/C [13]: 104 % of control

O=C1C=CC(=Nc2ccc3c(c2)C(Br)c2ccccc2-3)O1 (stereo not drawn)
T/C (dose: 3.12 mg/kg/injection, schedule: Q04DX003 (ip), vehicle: saline): 100 % of control | T/C (dose: 4.5 mg/kg/injection, schedule: Q01DX009 (ip), vehicle: saline): 102 % of control | T/C (dose: 6.25 mg/kg/injection, schedule: Q04DX003 (ip), vehicle: saline): 105 % of control | T/C (dose: 9.0 mg/kg/injection, schedule: Q01DX009 (ip), vehicle: saline): 95 % of control | T/C (dose: 12.5 mg/kg/injection, schedule: Q01DX001 (ip), vehicle: acetone): 100 % of control | T/C (dose: 12.5 mg/kg/injection, schedule: Q04DX003 (ip), vehicle: saline): 103 % of control | T/C (dose: 18.0 mg/kg/injection, schedule: Q04DX003 (ip), vehicle: saline): 98 % of control

Nc1n[nH]c(=S)n1-c1ccc(Cl)cc1
T/C [5]: 88 % of control | T/C [7]: 93 % of control | T/C [9]: 93 % of control

O=[N+]([O-])c1ccc(OCCCCCBr)c(Cl)c1
T/C (dose: 100.0 mg/kg/injection, schedule: Q04DX003 (ip), vehicle: gum acacia): 102 % of control | T/C (dose: 200.0 mg/kg/injection, schedule: Q04DX003 (ip), vehicle: gum acacia): 100 % of control | T/C (dose: 400.0 mg/kg/injection, schedule: Q04DX003 (ip), vehicle: gum acacia): 102 % of control

COC1OC(CBr)C(OC(C)=O)C(OC(C)=O)C1OS(C)(=O)=O (stereo not drawn)
T/C (dose: 100.0 mg/kg/injection, schedule: Q04DX002 (ip), vehicle: Klucel (hydroxypropylcellulose) (HPC)): 100 % of control | T/C (dose: 200.0 mg/kg/injection, schedule: Q04DX002 (ip), vehicle: Klucel (hydroxypropylcellulose) (HPC)): 97 % of control | T/C (dose: 400.0 mg/kg/injection, schedule: Q04DX002 (ip), vehicle: Klucel (hydroxypropylcellulose) (HPC)): 103 % of control

Cc1ccc2scc3c4ccccc4nc-3c2c1
T/C (dose: 25.0 mg/kg/injection, schedule: Q01DX009 (ip), vehicle: saline): 95 % of control | T/C (dose: 50.0 mg/kg/injection, schedule: Q01DX009 (ip), vehicle: saline): 95 % of control

CCCCCCCCCCCCCCCCCCCOc1ccc(OCCCCCCCC)cc1
T/C [5]: 94 % of control | T/C [7]: 92 % of control | T/C [9]: 94 % of control

Cc1cccc[n+]1CC(=O)c1ccc(-c2ccc(C(=O)C[n+]3ccccc3)cc2)cc1
T/C (dose: 0.04 mg/kg/injection, schedule: Q04DX003 (ip), vehicle: saline): 102 % of control | T/C (dose: 0.08 mg/kg/injection, schedule: Q04DX003 (ip), vehicle: saline): 104 % of control | T/C (dose: 0.15 mg/kg/injection, schedule: Q04DX003 (ip), vehicle: saline): 97 % of control

O=C1c2cccc([N+](=O)[O-])c2C(=O)N1c1ncn[nH]1
T/C (dose: 44.0 mg/kg/injection, schedule: Q01DX001 (ip), vehicle: saline): 93 % of control and 92 % of control | T/C [10]: 100 % of control | T/C (dose: 66.0 mg/kg/injection, schedule: Q01DX001 (ip), vehicle: saline): 93 % of control and 102 % of control | T/C [1]: 95 % of control and 92 % of control | T/C (dose: 150.0 mg/kg/injection, schedule: Q01DX001 (ip), vehicle: saline): 98 % of control | T/C [2]: 111 % of control | T/C [3]: 91 % of control

CC(C)(CSCC(C)(C)C(=O)O)C(=O)O
T/C [11]: 104 % of control | T/C [12]: 94 % of control | T/C [13]: 91 % of control

O=C1CCCCC(=O)OCCC1
T/C [1]: 93 % of control | T/C [2]: 98 % of control | T/C [3]: 88 % of control

CCN=C(c1ccc(NC(=O)c2ccc(C(=O)Nc3ccc(C(=NCC)N(CC)C(=O)Nc4ccc(OCC)cc4)cc3)cc2)cc1)N(CC)C(=O)Nc1ccc(OCC)cc1
T/C (dose: 3.75 mg/kg/injection, schedule: Q01DX015 (ip), vehicle: methylcellulose (MC)): 122 % of control | T/C (dose: 7.5 mg/kg/injection, schedule: Q01DX015 (ip), vehicle: methylcellulose (MC)): 150 % of control
